Reference: patent US8431712B2, “Methods for the synthesis of pyridoxamine” (NephroGenex, Inc., priority 2004, dated 2013)
pIC50: −log10 of the molar value.

Target: post-Amadori AGE formation (RNase Amadori)
Test: Post-Amadori inhibitory activity: inhibition of AGE formation from RNase Amadori, detected by ELISA (BST-3CK antibody, DELFIA Europium)
Assay type: biochemical
Conditions: for potency at inhibiting post-Amadori AGE formation compared to PM: comparison with pyridoxamine (PM)
Procedure: This example illustrates the activity of the dimer and trimer for inhibiting post-Amadori AGE formation compared to pyridoxamine.
All reactions were done in duplicate All compound stocks were 100 mM in DMSO. All reactions were carried out for 20 hours in 10% DMSO and 0.18 M Phosphate pH 7.4 Reaction volumes were 50 μl. Compound dilutions were first done in 100% DMSO Add to each well: • 20 μl of 0.2 M Phosphate • then 5 μl of compound dilution in 100% DMSO mix • Add 25 μl of 0.2 mg/ml RNase Amadori produced for a final protein concentration in the reaction of 0.1 mg/ml. • After 20 hours the reaction wells were diluted with coating buffer 5 to 50 then 4 to 50 to give a final concentration of 0.8 μg/ml or 40 ng/well. • Coat for two hours • Block one hour • 1 hour with primary antibody BST-3CK @ 1:10,000 • 1 hour with secondary antibody DELFIA Europium GAR @ 0.25 μg/ml (secondary antibody stock is at 660 μg/ml so diluted about 1:2500).
Compounds were tested over the range of concentrations 1000 to 1 μM.

[1] = 20 hours, 10% DMSO, 0.18 M Phosphate pH 7.4, 0.1 mg/ml RNase Amadori, tested 1000 to 1 μM, duplicate

SMILES	pIC50 [1]	potency at inhibiting post-Amadori AGE formation compared to PM	pIC50 (from previous experiments)
Cc1ncc(CO)c(Cc2nc(C)c(O)c(CN)c2CO)c1O [Dimer X]	3.00	more potent than PM	
Cc1ncc(CO)c(CN)c1O [Sigma PM, 4-aminomethyl-3-hydroxy-5-hydroxymethyl-2-methylpyridine, reference compound]			2.15
Cc1ncc(CO)c(Cc2nc(C)c(O)c(Cc3nc(C)c(O)c(CN)c3CO)c2CO)c1O [Trimer XX]	3.40	more potent than PM	
